The subject of one data set is male SD rats. Nature of the data set: Single-dose tolerability study, oral gavage. The data set is classed as in vivo, rat. To be noted: single oral dose in corn oil, n = 3/dose. The method, then:
Tolerability, 14-day dose-range-finding, and 90-day subchronic toxicity studies were conducted at Inotiv (Gaithersburg, MD, USA), monitored by the Research Triangle Institute (RTI) (Durham, NC, USA) and sponsored and funded by the EPA. Tolerability studies used four PFAS dose levels plus a control, with the high doses not to exceed 1000 mg/kg (subject to solubility in corn oil, dose volume of 5 or 10 mL/kg) and lower doses separated by threefold spacing. The dose levels for PFHI, MHFPK, and CTFPA were […]. The dose levels for PFNAC were 0, 25, 75, 225, and 667 mg/kg. Tolerability was studied using male rats (n = 3 rats/group) that received a single dose by oral gavage. The rats were euthanized at 48 hours post dosing. The data collected were bodyweight (BW) and BW changes (BWCs), feed consumption (FC) and water consumption (WC), cage-side observations, and physical exams; no necropsies were performed.

For the next data set, the system named is male and female SD rats. Nature of the data set: 14-day dose-range-finding oral gavage study. The data set is classed as in vivo, rat. The note with it: both sexes, all doses. The method, then: Dose-range-finding (14-day) studies were conducted using male and female rats to establish dose levels for 90-day studies and identify potential target organ toxicities. Male and female rats (n = 5 sex/group, a control and three dose groups, corn oil vehicle dose volume of 5 mL/kg) were administered PFASs by oral gavage daily for 14 days and euthanized on study day (SD) 15. The dose levels for PFHI, CTFPA, and MHFPK were 0, 30, 100, and 300 mg/kg-day. The dose levels for PFNAC were 0, 10, 30, and 100 mg/kg-day. The in vivo data collected included BW, BWCs, FC, cage-side observations, and physical exams. Gross necropsies, relative and absolute organ weights, and clinical chemistry data were collected for all the groups. Macroscopic and microscopic pathology examinations were conducted for the control and high-dose groups initially; the other groups were examined if justified by experimental findings. Plasma samples were analyzed ~2 h post dosing on day 1 and at day 15 for the parent PFAS chemical.
Neurotoxicity was evaluated using the functional observational battery (FOB) and measuring locomotor activity (LMA) 2–4 h post dosing on SDs 78–80 and 80–84, respectively. For both the 14- and 90-day studies, an ophthalmologic examination was conducted prior to randomization and near the end of the study, using indirect ophthalmoscopy and slit–lamp biomicroscopy (as needed) after the administration of a mydriatic solution.
Hematology, biochemistry, and coagulation endpoints were measured at the termination of the study. A Siemens Advia 2120i hematology analyzer (Siemens Healthineers, Erlangen, Germany) was used to measure (or calculate) the parameters related to the complete blood count, leukocyte differential count, and reticulocyte count. The hematology parameters are listed and described in Table 2. The prothrombin time […] and activated partial thromboplastin time (APTT) were measured using an Instrumentation Laboratory (Bedford, MA, USA) ACL Elite Pro coagulation analyzer (laser–nephelometric centrifugal method).
At necropsy, the rats were visually examined for external abnormalities and organ weights (absolute and relative to the BW and brain weight), which were recorded (paired organs weighed together). The tissues were preserved in 10% neutral buffered formalin (NBF), except for the ocular tissues, testes, and epididymides, which were preserved in modified Davidson’s fixative and later transferred to 10% NBF. Bone marrow smears were prepared from the femurs, and the slides were air-dried, fixed in methanol, stained, and stored at room temperature for possible future evaluation. The preserved tissues were embedded in paraffin, sectioned, stained with hematoxylin and eosin, and examined by a board-certified veterinary pathologist.

Regarding `CC(=O)C(F)(F)C(F)(F)C(F)(F)F` [MHFPK, Methyl heptafluoropropyl ketone], the Summary of observations entry with male SD rats is “No mortality. Clinical signs of low activity and minimal ataxia on study day 1 at 1000 mg/kg, with recovery on the following two observation days”. In addition, in the data set with male and female SD rats, the “Bodyweight and bodyweight gain” value was “No changes”; the Clinical chemistry result is “Minimal increases in BUN and creatinine at 300 mg/kg-day for males; increased creatinine in females at ≥100 mg/kg-day”; the Clinical observations result is recorded as “None”; the Coagulation endpoints entry was “No effects”. Further, in the data set on male and female SD rats, the Feed consumption result is “No effects”, the Gross lesions entry was “None”, the Hematology entry is reported as “No effects considered as chemical related” and the Histopathology entry was “No test-substance-related changes”. Moreover, in the data set on male and female SD rats, the Morbidity and mortality entry is recorded as “None”; the Ophthalmology entry is listed as “No ocular lesions”; the Organ weight changes result is listed as “No test-substance-related changes”.

These data come from PMC12298827, “Subchronic Toxicities of Four Per- and Polyfluoroalkyl Substances (PFASs) by Oral Exposure in Sprague–Dawley Rats” (Toxics, 2025).
